Assay results as given in patent US20100305207A1, “GLYCOGEN PHOSPHORYLASE INHIBITOR COMPOUND AND PHARMACEUTICAL COMPOSITION THEREOF” (priority 2007, published 2010).

Legend:
male CD rats = test: In vivo glucagon challenge model; parameters: species or system rat; settings: glucagon 10 ug/kg + Sandostatin 0.5 mg/kg i.v. 2 hr after dosing, serum glucose 0-20 min
Method: Jugular vein cannulated male CD rats (220-260 g) (Charles Rivers, Raleigh, N.C.) were received 1-2 days after cannulation, housed individually on Alpha-dri™ bedding (Shepherd Specialty Papers, Inc., Kalamazoo, Mich.) with free access to food (Lab Diet 5001, PMI Nutrition International, Brentwood, Mo.) and water and maintained on a 12 h light/dark cycle at 21° C. and 50% relative humidity for 3-4 days prior to the glucagon challenge studies. On the day of the study, the rats were sorted by body weight into treatment groups (N=4-5) and housed individually in shoe box cages with clean Alpha-dri bedding. The cannula lines were opened by removal of 0.2 ml blood and flushed with 0.2 ml sterile saline. After a one hour acclimation, blood samples were collected to determine basal glucose and the rats were orally dosed with vehicle (5% DMSO: 30% Solutol HS15: 20% PEG400: 45% 25 mM N-methylglucamine) or drug (5 ml/kg). Two hr after drug dosing, a time zero blood sample (0.4 ml) was collected for determination of glucose and the rats were dosed through the jugular vein with Sandostatin, 0.5 mg/kg, (Novartis Pharmaceuticals Corp., East Hanover, N.J.) and glucagon, 10 ug/kg (Bedford Laboratories, Bedford, Ohio). Blood samples were collected after 10 and 20 min for glucose determination. Whole blood was placed in a Terumo Capiject blood collection tube (Terumo Medical Corp., Elkton, Md.), allowed to sit at room temperature for 20-30 minutes and then centrifuged (3,000×G) to obtain serum. Serum levels of glucose were determined using an Olympus AU640™ clinical chemistry immuno-analyzer (Olympus America Inc., Melville, N.Y.). The % reduction (% R) of the vehicle glucose AUC was calculated for each drug treatment using the formula % reduction=100*1−(AUC drug/AUC vehicle), where AUG was calculated from serum glucose values using the equation AUG=(T0+T10)/2*10+(T10+T20)/2*10−(T0*20).

[1] = target: T1, human liver glycogen phosphorylase a (HLGPa) (Homo sapiens, UniProt P06737); test: Human liver glycogen phosphorylase a enzymatic activity assay; format: biochemical; settings: 15 nM HLGPa, coupled resorufin fluorescence readout, 15 min preincubation; assay run with and without 10 mM glucose, not stated which applies
T1 construct: creating a full-length cDNA fused at the 5′ end to codons for methionine-glycine-alanine-histidine; 6x histidine tag (leader Met-Gly-Ala-His6-Gly-Gly) (N); Tev protease cleavage site (Glu-Asn-Leu-Tyr-Phe-Gln-Gly-Gly) (N); made in house; host or cells: E. coli (bacterial expression plasmid pTXK1007LTev)
T1 sequence (P06737 2-847): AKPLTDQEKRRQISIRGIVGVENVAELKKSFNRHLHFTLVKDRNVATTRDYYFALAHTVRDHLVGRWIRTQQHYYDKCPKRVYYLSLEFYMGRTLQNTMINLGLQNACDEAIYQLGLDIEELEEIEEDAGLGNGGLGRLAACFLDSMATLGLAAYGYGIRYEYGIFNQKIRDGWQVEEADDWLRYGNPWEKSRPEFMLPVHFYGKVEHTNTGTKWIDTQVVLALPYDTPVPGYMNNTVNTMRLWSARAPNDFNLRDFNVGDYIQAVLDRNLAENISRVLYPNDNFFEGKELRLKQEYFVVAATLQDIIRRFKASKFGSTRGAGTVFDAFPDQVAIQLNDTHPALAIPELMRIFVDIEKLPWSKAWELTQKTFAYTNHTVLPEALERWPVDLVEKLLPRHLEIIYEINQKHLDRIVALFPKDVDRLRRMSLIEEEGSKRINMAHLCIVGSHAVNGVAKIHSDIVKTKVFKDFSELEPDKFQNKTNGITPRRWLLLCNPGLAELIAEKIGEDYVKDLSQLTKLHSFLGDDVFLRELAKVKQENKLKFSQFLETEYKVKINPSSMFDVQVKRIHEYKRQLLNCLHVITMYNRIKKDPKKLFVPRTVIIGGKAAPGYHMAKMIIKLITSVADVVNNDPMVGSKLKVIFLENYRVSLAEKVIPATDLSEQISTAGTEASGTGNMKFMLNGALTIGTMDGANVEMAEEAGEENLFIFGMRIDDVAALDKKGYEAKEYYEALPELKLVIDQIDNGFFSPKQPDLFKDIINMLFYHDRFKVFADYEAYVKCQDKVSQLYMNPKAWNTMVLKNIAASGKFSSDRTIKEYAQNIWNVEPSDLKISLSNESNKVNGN
From the text: The purified glycogen phosphorylase (GP) enzyme, wherein glycogen phosphorylase is in the activated “a” state, referred to as human liver glycogen phosphorylase a (HLGPa), can be obtained according to the following procedures.
Human liver glycogen phosphorylase cDNA was amplified by polymerase chain reaction (PCR) from a commercially available human liver cDNA library (BD Biosciences). The cDNA was amplified as 2 overlapping fragments using the primers 5′[…]3′ with 5′[…]3′ and 5′[…]3′ with 5′[…]3′. PCR conditions were 94° C. 1 min., 55° C. 1 min., 72° C. 2 min. for 40 cycles using the enzyme Pfu Turbo (Stratagene), 0.5% DMSO, 250 uM each nucleotide triphosphate, and 0.4 uM each primer plus the buffer recommended by the polymerase manufacturer. Each PCR fragment was molecularly cloned and the DNA sequence of each insert was determined. […] The DNA sequence of both strands of the cDNA in pTXK1007LTev was determined. […]
Frozen purified glycogen phosphorylase (HLGPb) was thawed in at 4° C. then dialyzed overnight into 50 mM HEPES, 100 mM NaCl, pH 7.4. […] The degree of phosphorylation was monitored by following the increase in activity at 10 minute intervals using the assay system outlined below. […]

## COCCOc1ccc(C(=O)N[C@H](C(=O)O)[C@@H](C)OC(C)(C)C)c(NC(=O)Nc2c(C)cc(CC3CC3)cc2C)c1 [Example 1, N-[(2-[({[4-(Cyclopropylmethyl)-2,6-dimethylphenyl]amino}carbonyl)amino]-4-{[2-(methyloxy)ethyl]oxy}phenyl)carbonyl]-O-(1,1-dimethylethyl)-L-threonine]
Male CD rats; 0.1 mg/kg oral
  % R (% reduction of the vehicle glucose AUC): 4%
Male CD rats; 0.5 mg/kg oral
  % R (% reduction of the vehicle glucose AUC): 36%
Male CD rats; 2 mg/kg oral
  % R (% reduction of the vehicle glucose AUC): 48%
Male CD rats; 5 mg/kg oral
  % R (% reduction of the vehicle glucose AUC): 76%
[1]
  IC50: 4 nM
